Measurements taken from patent publication US20110288036A1, “Methods for Treating or Preventing Vascular Graft Failure” (priority 2010, published 2011).

Experiments:
Assay type in all cases: cell-based
[1] = system: human endothelial cell (EC); test: MTS cell proliferation assay, endothelial cells; conditions: pre-treatment 20 ng/ml TNF-α
Protocol: Primary human aortic endothelial cells (HAEC) and primary human aortic smooth muscle cells (HASMC) were obtained from Invitrogen; primary human coronary artery endothelial cells (HCAEC) were obtained from Lonza.
All cultures were maintained in 25 cm^2 polystyrene tissue culture flasks in a 37° C., 5% CO2/95% air environment, with cell culture media refreshed every other day. All cells were seeded at a density of 20,000˜30,000 cells/cm^2, as required by the specific experiment, and allowed to grow to 80-90% confluence before being harvested/passaged. Only cells from early passages (numbers 2-8) were utilized in experiments.
The CellTiter 96® AQueous Non-Radioactive Cell Proliferation Assay (Promega) was used to assess drug effects on cell proliferation according to the manufacturer's instructions. Briefly, HAECs and HASMCs from early passages were grown to 80-90% confluence in 25 cm^2 tissue culture flasks in a 37° C./5% CO2 incubator prior to harvest. 200 μl of each type of cell suspension (at 20,000 cells/cm^2) was seeded onto separate 96-well plates to yield an approximate 60% confluence per well. Cells were allowed to adhere to the plate surface overnight, followed by addition of 20 ng/ml of TNF-α to stimulate production of inflammatory agents. After a 4-6 hour incubation period, MMI-0100 peptide drug ([…]; SEQ ID NO: 1) was added and cells incubated for another 20-24 hours. Each well was then supplemented with 100 μl of fresh medium and 20 μl of CellTiter 96® AQueous One Solution Reagent and incubated for an additional 1.5-2 hours prior to measuring absorbance of each well at 490 nm with a SoftMax®-equipped plate reader.
(§1) In order to determine the effect of pharmacological doses of MMI-0100 ([…]; SEQ ID NO: 1) on human endothelial cell (EC) and smooth muscle cell (SMC) proliferation, human EC and SMC cultures were treated with three concentrations (0.25 mM, 0.5 mM, and 1 mM) of MMI-0100 ([…] (SEQ ID NO: 1)) following pre-treatment with TNF-α.

[2] = system: human saphenous vein (HSV); test: Muscle bath: sodium nitroprusside-induced relaxation of human saphenous vein; conditions: for relaxation: 100 μM pretreatment, phenylephrine 10^-6 M, percent relaxation per method
Protocol: De-identified, discarded segments of human saphenous vein (HSV) were collected from consented patients undergoing coronary artery or peripheral vascular bypass surgeries. HSV segments were stored in a saline solution until the end of the surgical procedure, at which time they were placed in cold transplant harvest buffer (100 mM potassium lactobionate, 25 mM KH2PO4, 5 mM MgSO4, 30 mM Raffinose, 5 mM Adenosine, 3 mM Glutathione, 1 mM Allopurinol, 50 g/L Hydroxyethyl starch, pH 7.4). The vessels were used within 24 hours of harvest. Using sterile technique, HSV segments were transferred to a 60-mm Petri dish under a sterile hood. The edges (0.5 mm) of each segment were removed with a blade and excess adventitial tissue and fat removed with minimal manipulation. HSV segments were cut into consecutive rings of approximately 1.0 mm in width to be utilized for organ culture or muscle bath experiments. Two rings from each segment were immediately fixed in 10% formalin at 37° C. for 30 min to obtain pre-culture intimal thickening measurements.
In preparation for testing vein segment functional viability, HSV rings were weighed and their lengths recorded. To focus on smooth muscle responses, the endothelium was mechanically denuded by rolling the luminal surface of each ring at the tip of a fine vascular forceps before suspension in a muscle bath containing a bicarbonate buffer (120 mM NaCl, 4.7 mM KCl, 1.0 mM MgSO4, 1.0 mM NaH2PO4, 10 mM glucose, 1.5 mM CaCl2, and 25 mM […], pH 7.4) equilibrated with 95% O2 and 5% CO2 at 37° C. The rings were stretched and the length progressively adjusted until maximal tension was obtained. […] Rings were maintained at a resting tension of 1 g, which produces maximal responses to contractile agonists as previously determined, and equilibrated for 2 hours in buffer. […]
HSV rings were first contracted with 110 mM KCl (with equimolar replacement of NaCl in bicarbonate buffer) and the generated force was measured. […] Rings were relaxed with a cumulative log dose of sodium nitroprusside (SNP), a nitric oxide donor, and the force generated was recorded. […] Rings were then incubated with either buffer alone or buffer plus 100 μM of MMI-0100 ([…] (SEQ ID NO: 1)) for 2 hours, followed by treatment with the same doses of PE and SNP, and the forces generated again recorded. Measured force was normalized for ring weight and length and percent relaxation was calculated; force generated with 10^−6 M of PE was set as 0% relaxation.
The enhancing effect of MMI-0100 ([…]; SEQ ID NO: 1) on smooth muscle relaxation was examined by pre-treating harvested human saphenous vein (HSV) with MMI-0100 ([…]; SEQ ID NO: 1) before SNP treatment. […] Percentage of relaxation at 0, 0.01, 0.1, and 1.0 μM of SNP was measured. […]

[3] = system: human smooth muscle cell (SMC); test: Phase contrast morphology, smooth muscle cells; conditions: 24 hours treatment, vs control cells
Protocol: as §1

## YARAAARQARAKALARQLGVAA [MMI-0100]
[1]; 0.25 mM
  EC proliferation vs TNF-α alone control: slightly increased cell proliferation
[1]; 0.5 mM
  increase in EC proliferation vs TNF-α alone control: 30%
[1]; 1 mM
  increase in EC proliferation vs TNF-α alone control: 11%
[2]; 30 μM, 2 hrs pretreatment, norepinephrine contraction, SNP 0-1 μM
  increase in relaxation compared to control-pretreated HSV: about 40%
[2]; SNP 10^-7 M, untreated control 72.768±6.99
  relaxation: 92.54±3.09
[2]; SNP 10^-8 M, untreated control 10.825±5.62
  relaxation: 25.622±6.38
[3]
  morphological changes of SMC: no obvious morphological changes
